Results as given in ChEMBL document CHEMBL3397009, “Synthesis and biological evaluation of aryl isoxazole derivatives as metabotropic glutamate receptor 1 antagonists: a potential treatment for neuropathic pain” (Bioorg Med Chem Lett, 2015).
Active and inactive are the calls of the source.

Key:
[1] = target: Metabotropic glutamate receptor 5 (Homo sapiens) (UniProt P41594); assay: Antagonist activity against human mGluR5 expressed in HEK cells assessed as inhibition of L-glutamate-induced intracellular calcium levels at 1 uM after 18 hrs; assay type: functional, cell-based; conditions: HEK293
Metabotropic glutamate receptor 5 (Homo sapiens), sequence (P41594 21-1212 limits assumed): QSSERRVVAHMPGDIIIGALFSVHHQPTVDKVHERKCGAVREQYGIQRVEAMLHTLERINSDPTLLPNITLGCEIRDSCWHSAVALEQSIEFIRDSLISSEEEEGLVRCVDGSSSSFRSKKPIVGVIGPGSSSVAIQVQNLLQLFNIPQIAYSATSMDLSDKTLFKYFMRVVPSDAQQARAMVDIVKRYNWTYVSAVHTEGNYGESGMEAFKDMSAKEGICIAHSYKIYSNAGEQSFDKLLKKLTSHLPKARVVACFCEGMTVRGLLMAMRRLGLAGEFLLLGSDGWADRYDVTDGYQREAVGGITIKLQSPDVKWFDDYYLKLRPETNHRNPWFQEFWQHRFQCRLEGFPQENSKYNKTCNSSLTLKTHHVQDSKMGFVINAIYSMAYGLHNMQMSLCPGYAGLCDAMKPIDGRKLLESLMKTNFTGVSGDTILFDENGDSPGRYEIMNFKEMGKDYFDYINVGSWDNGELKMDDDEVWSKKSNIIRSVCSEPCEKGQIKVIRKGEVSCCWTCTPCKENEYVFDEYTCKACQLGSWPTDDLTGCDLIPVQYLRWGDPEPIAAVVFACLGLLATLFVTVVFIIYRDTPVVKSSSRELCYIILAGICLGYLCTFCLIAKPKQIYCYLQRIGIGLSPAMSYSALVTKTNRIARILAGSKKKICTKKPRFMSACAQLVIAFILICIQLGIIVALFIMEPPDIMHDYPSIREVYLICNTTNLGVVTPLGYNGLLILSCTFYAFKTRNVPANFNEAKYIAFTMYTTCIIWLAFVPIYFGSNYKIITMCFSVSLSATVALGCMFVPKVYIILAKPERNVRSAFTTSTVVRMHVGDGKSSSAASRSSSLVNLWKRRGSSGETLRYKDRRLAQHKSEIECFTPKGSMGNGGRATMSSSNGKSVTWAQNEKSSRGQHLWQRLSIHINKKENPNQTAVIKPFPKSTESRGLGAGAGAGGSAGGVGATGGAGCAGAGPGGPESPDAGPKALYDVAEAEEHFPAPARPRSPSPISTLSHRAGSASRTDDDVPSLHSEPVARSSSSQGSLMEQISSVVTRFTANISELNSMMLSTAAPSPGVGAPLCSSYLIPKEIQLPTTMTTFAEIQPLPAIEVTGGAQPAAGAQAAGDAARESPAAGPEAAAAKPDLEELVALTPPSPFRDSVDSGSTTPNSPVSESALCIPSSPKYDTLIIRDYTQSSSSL

[2] = target: Metabotropic glutamate receptor 5 (Homo sapiens) (UniProt P41594); assay: Antagonist activity against human mGluR5 expressed in HEK cells assessed as inhibition of L-glutamate-induced intracellular calcium levels at 10 uM after 18 hrs; assay type: functional, cell-based; conditions: HEK293
[3] = target: Metabotropic glutamate receptor 1 (Homo sapiens) (UniProt Q13255); assay: Antagonist activity against human mGluR1 expressed in HEK cells assessed as inhibition of L-glutamate-induced intracellular calcium levels at 10 uM after 18 hrs; assay type: functional, cell-based; conditions: HEK293
Metabotropic glutamate receptor 1 (Homo sapiens), sequence (Q13255 19-1194 limits assumed): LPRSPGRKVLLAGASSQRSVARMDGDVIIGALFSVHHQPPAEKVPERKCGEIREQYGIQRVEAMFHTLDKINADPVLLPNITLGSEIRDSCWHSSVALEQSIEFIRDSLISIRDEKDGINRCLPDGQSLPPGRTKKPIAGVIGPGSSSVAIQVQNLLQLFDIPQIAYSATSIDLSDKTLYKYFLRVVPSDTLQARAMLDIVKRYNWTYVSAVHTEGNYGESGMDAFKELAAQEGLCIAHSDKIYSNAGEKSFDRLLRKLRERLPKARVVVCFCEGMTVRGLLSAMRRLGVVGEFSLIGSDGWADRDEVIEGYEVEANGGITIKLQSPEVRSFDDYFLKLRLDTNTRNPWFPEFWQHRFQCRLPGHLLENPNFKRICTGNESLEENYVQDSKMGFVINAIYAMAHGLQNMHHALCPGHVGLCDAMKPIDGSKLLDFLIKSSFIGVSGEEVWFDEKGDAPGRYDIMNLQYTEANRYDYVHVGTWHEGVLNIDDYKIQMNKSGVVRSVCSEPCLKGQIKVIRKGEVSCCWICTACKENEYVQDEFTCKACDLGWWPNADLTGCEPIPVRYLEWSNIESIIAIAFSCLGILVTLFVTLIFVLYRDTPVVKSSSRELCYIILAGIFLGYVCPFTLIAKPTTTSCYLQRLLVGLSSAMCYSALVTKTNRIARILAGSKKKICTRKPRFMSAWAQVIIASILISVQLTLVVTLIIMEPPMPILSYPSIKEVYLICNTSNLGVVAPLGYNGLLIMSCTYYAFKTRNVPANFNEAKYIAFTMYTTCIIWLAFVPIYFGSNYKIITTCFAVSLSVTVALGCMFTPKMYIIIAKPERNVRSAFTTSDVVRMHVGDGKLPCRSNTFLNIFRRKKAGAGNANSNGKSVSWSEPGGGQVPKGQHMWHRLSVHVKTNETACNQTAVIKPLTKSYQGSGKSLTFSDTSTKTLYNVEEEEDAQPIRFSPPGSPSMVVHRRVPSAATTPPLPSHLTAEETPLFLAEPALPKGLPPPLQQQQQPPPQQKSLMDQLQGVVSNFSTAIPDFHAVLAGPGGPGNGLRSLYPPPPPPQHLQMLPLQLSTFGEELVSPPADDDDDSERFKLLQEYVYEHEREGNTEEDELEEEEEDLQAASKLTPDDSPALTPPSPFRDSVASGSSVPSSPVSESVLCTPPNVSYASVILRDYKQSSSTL

[4] = target: Metabotropic glutamate receptor 1 (Homo sapiens) (UniProt Q13255); assay: Antagonist activity against human mGluR1 expressed in HEK cells assessed as inhibition of L-glutamate-induced intracellular calcium levels at 1 uM after 18 hrs; assay type: functional, cell-based; conditions: HEK293
[5] = target: CYP2C19 (Homo sapiens, UniProt P33261); assay: Inhibition of CYP2C19 (unknown origin) assessed as remaining enzyme activity at 10 uM; assay type: ADME; conditions: read-out: Activity
CYP2C19, sequence (P33261 whole entry): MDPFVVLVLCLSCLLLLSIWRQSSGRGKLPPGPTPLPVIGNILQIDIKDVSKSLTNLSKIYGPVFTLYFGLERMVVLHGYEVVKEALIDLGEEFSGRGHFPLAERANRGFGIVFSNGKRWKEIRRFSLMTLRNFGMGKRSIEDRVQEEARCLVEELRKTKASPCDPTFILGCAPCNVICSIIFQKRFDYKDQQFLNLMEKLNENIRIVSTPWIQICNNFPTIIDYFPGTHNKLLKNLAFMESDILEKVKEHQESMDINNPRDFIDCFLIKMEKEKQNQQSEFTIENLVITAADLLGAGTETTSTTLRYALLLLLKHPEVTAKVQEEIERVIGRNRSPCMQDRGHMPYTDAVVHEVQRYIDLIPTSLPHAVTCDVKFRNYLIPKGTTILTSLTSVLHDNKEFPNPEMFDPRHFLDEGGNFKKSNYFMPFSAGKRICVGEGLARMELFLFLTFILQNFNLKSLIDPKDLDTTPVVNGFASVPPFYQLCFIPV

[6] = target: CYP2D6 (Homo sapiens, UniProt P10635); assay: Inhibition of CYP2D6 (unknown origin) assessed as remaining enzyme activity at 10 uM; assay type: ADME; conditions: read-out: Activity
CYP2D6, sequence (P10635 whole entry): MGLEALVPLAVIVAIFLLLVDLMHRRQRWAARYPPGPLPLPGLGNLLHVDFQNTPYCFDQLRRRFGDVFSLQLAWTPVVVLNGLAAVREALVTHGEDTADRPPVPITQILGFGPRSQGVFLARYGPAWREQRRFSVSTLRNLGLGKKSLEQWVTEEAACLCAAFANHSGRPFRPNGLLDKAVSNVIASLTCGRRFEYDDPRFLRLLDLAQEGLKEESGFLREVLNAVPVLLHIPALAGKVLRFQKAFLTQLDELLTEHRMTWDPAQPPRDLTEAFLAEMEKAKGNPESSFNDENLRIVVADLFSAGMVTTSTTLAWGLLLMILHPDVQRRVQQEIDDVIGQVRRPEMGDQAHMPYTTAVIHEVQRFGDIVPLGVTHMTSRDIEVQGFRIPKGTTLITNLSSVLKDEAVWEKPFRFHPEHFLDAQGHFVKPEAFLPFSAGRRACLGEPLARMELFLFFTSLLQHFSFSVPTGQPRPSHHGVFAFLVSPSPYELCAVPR

[7] = target: CYP3A4 (Homo sapiens, UniProt P08684); assay: Inhibition of CYP3A4 (unknown origin) assessed as remaining enzyme activity at 10 uM; assay type: ADME; conditions: read-out: Activity
CYP3A4, sequence (P08684 whole entry): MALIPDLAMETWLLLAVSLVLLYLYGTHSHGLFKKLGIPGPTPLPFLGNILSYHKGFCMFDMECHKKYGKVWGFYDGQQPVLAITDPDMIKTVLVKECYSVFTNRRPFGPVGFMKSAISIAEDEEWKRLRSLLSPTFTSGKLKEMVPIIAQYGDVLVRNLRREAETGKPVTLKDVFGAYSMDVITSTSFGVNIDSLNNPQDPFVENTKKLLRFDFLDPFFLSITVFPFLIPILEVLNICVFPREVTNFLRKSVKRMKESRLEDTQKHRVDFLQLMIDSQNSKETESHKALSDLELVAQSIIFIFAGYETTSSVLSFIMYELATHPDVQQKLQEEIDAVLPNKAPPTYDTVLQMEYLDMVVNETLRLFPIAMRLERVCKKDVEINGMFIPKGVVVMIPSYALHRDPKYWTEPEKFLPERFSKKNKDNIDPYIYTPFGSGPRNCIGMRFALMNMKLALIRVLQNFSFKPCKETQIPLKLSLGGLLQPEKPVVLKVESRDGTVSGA

[8] = target: T1, CYP1A2 (Homo sapiens, UniProt P05177); assay: Inhibition of CYP1A2 (unknown origin) assessed as remaining enzyme activity at 10 uM; assay type: ADME; conditions: read-out: Activity
T1 sequence (P05177 whole entry): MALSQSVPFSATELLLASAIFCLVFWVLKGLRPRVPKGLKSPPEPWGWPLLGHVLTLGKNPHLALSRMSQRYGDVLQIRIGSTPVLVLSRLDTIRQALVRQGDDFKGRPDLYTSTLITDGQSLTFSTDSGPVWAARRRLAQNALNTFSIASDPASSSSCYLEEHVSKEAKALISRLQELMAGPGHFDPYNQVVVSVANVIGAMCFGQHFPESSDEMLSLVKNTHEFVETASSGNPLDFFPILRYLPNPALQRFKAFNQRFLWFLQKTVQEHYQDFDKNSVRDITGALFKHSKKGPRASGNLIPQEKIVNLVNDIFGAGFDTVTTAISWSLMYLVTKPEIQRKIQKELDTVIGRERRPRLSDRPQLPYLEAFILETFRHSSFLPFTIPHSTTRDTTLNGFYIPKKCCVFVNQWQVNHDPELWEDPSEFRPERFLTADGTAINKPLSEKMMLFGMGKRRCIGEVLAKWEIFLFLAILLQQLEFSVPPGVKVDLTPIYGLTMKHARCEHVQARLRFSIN

[9] = tested on: Rattus norvegicus; assay: Analgesic activity in rat model of spinal nerve ligation-induced neuropathic pain assessed as reduction in mechanical threshold for paw withdrawal at 100 mg/kg, po administered on day 14 after ligation surgery and measured 3 hrs post dose by Von Frey filaments based method; assay type: functional, organism-based; parameters: dose 100 mg/kg
[10] = target: CYP2C9 (Homo sapiens, UniProt P11712); assay: Inhibition of CYP2C9 (unknown origin) assessed as remaining enzyme activity at 10 uM; assay type: ADME; conditions: read-out: Activity
CYP2C9, sequence (P11712 whole entry): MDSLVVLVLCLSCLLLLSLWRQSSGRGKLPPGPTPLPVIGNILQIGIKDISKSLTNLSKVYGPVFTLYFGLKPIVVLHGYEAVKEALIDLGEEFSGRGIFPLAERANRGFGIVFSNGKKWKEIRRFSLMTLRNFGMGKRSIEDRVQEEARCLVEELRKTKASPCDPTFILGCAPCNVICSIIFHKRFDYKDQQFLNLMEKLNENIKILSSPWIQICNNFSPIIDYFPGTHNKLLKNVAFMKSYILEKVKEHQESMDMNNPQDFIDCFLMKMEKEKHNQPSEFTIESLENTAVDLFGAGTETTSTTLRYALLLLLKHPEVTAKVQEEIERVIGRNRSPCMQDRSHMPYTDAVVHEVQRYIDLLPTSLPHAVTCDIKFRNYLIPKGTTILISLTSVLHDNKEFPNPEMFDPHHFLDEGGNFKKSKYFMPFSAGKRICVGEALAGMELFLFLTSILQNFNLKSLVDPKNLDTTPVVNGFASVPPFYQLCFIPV

[11] = tested on: Rattus norvegicus; assay: Analgesic activity in rat model of spinal nerve ligation-induced neuropathic pain assessed as reduction in cold allodynia by measuring paw withdrawal in response to acetone application at 100 mg/kg, po administered on day 14 after ligation surgery and measured 3 hrs post dose; assay type: functional, organism-based; parameters: dose 100 mg/kg
[12] = target: Voltage-gated inwardly rectifying potassium channel KCNH2 (Homo sapiens, UniProt Q12809); assay: Inhibition of human ERG

Compound | inhibition [1] | inhibition [2] | inhibition [3] | inhibition [4] | activity at 10 µM [5] | activity at 10 µM [6] | activity at 10 µM [7] | activity at 10 µM [8] | Activity [9] | activity at 10 µM [10] | Activity [11] | IC50 [12]
CC(C)N1C(=O)c2ccc(-c3cc(-c4ccc(Cl)nc4)no3)cc21 | 16.1% | 10.1% | 7.77% | 12.3% |  |  |  |  |  |  |  | 
CC(C)N1C(=O)c2ccc(-c3cc(-c4ccc(F)cc4F)no3)cc21 |  |  | 17.3% | 11.7% |  |  |  |  |  |  |  | 
CC(C)N1C(=O)c2ccc(-c3cc(-c4ccc(F)cc4)no3)cc21 | 1.82% | 34% | 50.4% | 12.8% |  |  |  |  |  |  |  | 
COc1ccc(-c2cc(-c3ccc4c(c3)N(C(C)C)C4=O)on2)cc1 | 13.6% | 15.9% | 2.44% | 11.3% |  |  |  |  |  |  |  | 
CC(C)N1Cc2cc(-c3cc(-c4cccnc4F)no3)ccc2C1=O |  |  | 42.3% | 23.4% |  |  |  |  |  |  |  | 
CC(C)N1C(=O)c2ccc(-c3cc(-c4ccccc4F)no3)cc21 | 14.9% | 18.3% | 91.1% | 68% | 33.2% | 57.1% | 120% | 98.7% | inactive | 32% | inactive | 
Cc1c(-c2ccc3c(c2)CN(C(C)C)C3=O)nnn1-c1ccc(F)cc1F |  |  | 93.1% | 92.5% |  |  |  |  | Active |  | Active | 
CC(C)N1Cc2cc(-c3cc(-c4ccccc4F)no3)ccc2C1=O | 21.9% | 22.5% | 88.6% | 56.3% | 58.4% | 45.8% | 107% | 42.5% |  | 39.8% |  | 
COc1ccc(-c2cc(-c3ccc4c(c3)CN(C(C)C)C4=O)on2)cc1 | 15.4% | 15.1% | 35.1% | 41% |  |  |  |  |  |  |  | 
Cc1c(-c2ccc(Cl)cc2)noc1-c1ccc2c(c1)N(C(C)C)C2=O | 9.46% | 28.7% | 49.1% | 20.3% |  |  |  |  |  |  |  | 
NCC1(CC(=O)O)CCCCC1 |  |  |  |  |  |  |  |  | Active |  | Active | 
Cc1ccc(-c2cc(-c3ccc4c(c3)CN(C(C)C)C4=O)on2)cc1 | 21.8% | 15% | 25.1% | 37.4% |  |  |  |  |  |  |  | 
Cc1c(-c2ccc(F)cc2)noc1-c1ccc2c(c1)CN(C(C)C)C2=O | 8.16% | 18.7% | 62.8% | 38.4% |  |  |  |  |  |  |  | 
Cc1ccc(-c2cc(-c3ccc4c(c3)CN(C(C)C)C4=O)on2)cn1 | 14% | 34.4% | 62.6% | 4.53% |  |  |  |  |  |  |  | 
COc1ccc(-c2noc(-c3ccc4c(c3)CN(C(C)C)C4=O)c2C)cn1 | 33.5% | 30.8% | 46.5% | 49.1% |  |  |  |  |  |  |  | 
CC(C)N1C(=O)c2ccc(-c3cc(-c4ccc(Cl)cc4)no3)cc21 | 12.2% | 10.3% | 33.9% | 16.4% |  |  |  |  |  |  |  | 
Cc1c(-c2ccc(Cl)nc2)noc1-c1ccc2c(c1)CN(C(C)C)C2=O | 22.2% | 26.3% | 56.9% | 47.1% |  |  |  |  |  |  |  | 
Cc1c(-c2ccc(F)cc2F)noc1-c1ccc2c(c1)CN(C(C)C)C2=O | 7.95% | 26.3% | 87.6% | 31.9% | 59.2% | 104% | 98% | 89.6% |  | 2.55% |  | 
Cc1c(-c2ccc(Cl)cc2)noc1-c1ccc2c(c1)CN(C(C)C)C2=O | 11.7% | 23.4% | 61.6% | 30.7% |  |  |  |  |  |  |  | 
COc1ccc(-c2noc(-c3ccc4c(c3)N(C(C)C)C4=O)c2C)cc1 |  |  | 13.7% | 9.68% |  |  |  |  |  |  |  | 
CC(C)N1Cc2cc(-c3cc(-c4ccc(Cl)nc4)no3)ccc2C1=O | 22.7% | 36.5% | 47.1% | 45.4% | 56.6% | 91.3% | 94.5% | 92.6% | Active | 104% | Active | 40 µM
COc1ccc(-c2cc(-c3ccc4c(c3)CN(C(C)C)C4=O)on2)cn1 | 5.29% | 29.2% | 59.6% | 16.6% | 85.9% | 87.5% | 95.6% | 90.7% | Active | 91.8% | Active | 12 µM
CC(C)N1Cc2cc(-c3cc(-c4ccc(F)cc4F)no3)ccc2C1=O | 17.7% | 13.4% | 36.5% | 39.8% |  |  |  |  |  |  |  | 
